From the supplement of paper PMC10307832

Legend:
Experiment in all cases: relative viability (nuclei count vs DMSO), 5 days (fraction); higher = more cells survive
Zosuquidar + Pictilisib = compound: O[C@@H](COc1cccc2ncccc12)CN1CCN([C@@H]2c3ccccc3[C@@H]3[C@H](c4ccccc42)C3(F)F)CC1 [Zosuquidar] + CS(=O)(=O)N1CCN(Cc2cc3nc(-c4cccc5[nH]ncc45)nc(N4CCOCC4)c3s2)CC1 [Pictilisib] (partner 1 µM)
In short: (§1)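 The day after seeding in 1536-well plates, lung cancer cell lines were treated by pin tool with a single drug, or with a fixed anchor-drug dose together with five library-drug doses (not always all listed) in √10 steps. After 5 days, a combined fix-and-stain solution (final 0.05% Triton X-100, 1% formaldehyde, 1 ug/ml Hoechst) was added. Nuclei counted on 4× images gave relative viability as treated counts over vehicle counts, reported as the median of duplicate plates.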

Kobe2602 + Decitabine = compound: C1=CC(=CC=C1NC(=S)NNC2=C(C=C(C=C2[N+](=O)[O-])C(F)(F)F)[N+](=O)[O-])F [Kobe2602] + Nc1ncn([C@H]2C[C@H](O)[C@@H](CO)O2)c(=O)n1 [Decitabine] (partner 2 µM)
In short: as §1

Kobe2602 + Dasatinib = compound: C1=CC(=CC=C1NC(=S)NNC2=C(C=C(C=C2[N+](=O)[O-])C(F)(F)F)[N+](=O)[O-])F [Kobe2602] + Cc1nc(Nc2ncc(C(=O)Nc3c(C)cccc3Cl)s2)cc(N2CCN(CCO)CC2)n1 [Dasatinib] (partner 0.075 µM)
In short: as §1

[1] = compound: COc1cc2nccc(Oc3ccc(NC(=O)C4(C(=O)Nc5ccc(F)cc5)CC4)cc3)c2cc1OC [Cabozantinib] + CC1(C)CCC(c2ccc(Cl)cc2)=C(CN2CCN(c3ccc(C(=O)NS(=O)(=O)c4ccc(N[C@H](CCN5CCOCC5)CSc5ccccc5)c(S(=O)(=O)C(F)(F)F)c4)cc3)CC2)C1 [Navitoclax] (partner 0.5 µM)
In short: as §1

Work on UMC-11 yielded a relative viability (Zosuquidar + Pictilisib; first compound 0.01 µM) of 0.663, a relative viability (Zosuquidar + Pictilisib; first compound 0.03162 µM) of 0.92 and a relative viability (Zosuquidar + Pictilisib; first compound 0.1 µM) of 0.707. The relative viability (Zosuquidar + Pictilisib; first compound 0.3162 µM) was 0.881, the relative viability (Zosuquidar + Pictilisib; first compound 1 µM) was 0.777 and the relative viability (Kobe2602 + Decitabine; first compound 0.2 µM) was 0.564. It also gave a relative viability (Kobe2602 + Decitabine; first compound 0.6325 µM) of 0.622, a relative viability (Kobe2602 + Decitabine; first compound 2 µM) of 0.675 and a relative viability (Kobe2602 + Decitabine; first compound 6.325 µM) of 0.466. For the same cell line, the relative viability (Kobe2602 + Decitabine; first compound 20 µM) was 0.652, the relative viability (Kobe2602 + Dasatinib; first compound 0.2 µM) was 0.49 and the relative viability (Kobe2602 + Dasatinib; first compound 0.6325 µM) was 0.449. The relative viability (Kobe2602 + Dasatinib; first compound 2 µM) was 0.449, the relative viability (Kobe2602 + Dasatinib; first compound 6.325 µM) was 0.451 and the relative viability (Kobe2602 + Dasatinib; first compound 20 µM) was 0.452. For the same cell line, the relative viability ([1]; first compound 0.02 µM) was 0.298, the relative viability ([1]; first compound 0.06325 µM) was 0.332 and the relative viability ([1]; first compound 0.2 µM) was 0.34. It also gave a relative viability ([1]; first compound 0.6325 µM) of 0.329 and a relative viability ([1]; first compound 2 µM) of 0.297.
